≈ marks a conversion by molar mass, not a printed value.
Key:
[1] = adsorption rate of vactosertib onto bentonite; format: physicochemical
Experimental: The adsorption rates of vactosertib and bentonite according to the pH of a solvent were evaluated. At this time, considering that the vactosertib was not dissolved in neutral, but stated to be dissolved in about 1 mg/mL from pH 3, a test was performed by setting a reaction pH to pH 1, pH 2, and pH 3. First, 10 mg/mL of the vactosertib was dissolved in a 0.1 N hydrochloric acid aqueous solution and diluted with a hydrochloric acid aqueous solution or a phosphate buffer solution (pH 1: 0.1 N hydrochloric acid aqueous solution, pH 2, pH 3: phosphate buffer solution) corresponding to each pH to adjust the concentration to 1 mg/mL. 1 mL of a corresponding drug solution, 8 mL of a reaction solution (that is, 0.1 N hydrochloric acid aqueous solution or phosphate buffer solution) corresponding to each pH, and 1 mL of a 5 mg/mL suspension in which bentonite was suspended in distilled water were mixed and left for 30 minutes to adsorb the drug onto the bentonite. Thereafter, a drug concentration of a supernatant obtained by centrifugation (3,000 rpm, 5 minutes) was analyzed. Through this, the drug amount adsorbed onto the bentonite was indirectly calculated as shown in Equation 1 by removing the remaining drug amount in the supernatant from the entirely applied drug (vactosertib) to calculate an adsorption rate. [formula] [formula] To this end, a sample was prepared in the same manner as in Test Example 1, and a complex was prepared by fixing a reaction concentration and a reaction pH of bentonite to 0.5 mg/mL and pH 1, respectively, and varying the concentration of the applied vactosertib from 0.01 mg/mL to 0.5 mg/mL. In addition, a difference in adsorption rate according to the concentration of vactosertib was measured. To this end, a sample was prepared in the same manner as in Test Example 1, and a complex was prepared by using a solvent of pH 1, setting a concentration ratio of vactosertib and bentonite to 1:5, and varying an absolute concentration (that is, actual concentration). In addition, a difference in adsorption rate according to an absolute concentration was measured.

[2] = system: interleukin 6 (IL-6); assay: immunohistochemical IL-6 staining of large intestine, DSS ulcerative colitis mouse model; format: in vivo, C57BL/6 mice; conditions: DSS 2% mice, same dosing
Experimental: Animal tests were performed to confirm anti-inflammatory, anti-crypt cell damage, anti-ulcer, anti-edema, and anti-fibrosis effects of a vactosertib/bentonite complex using a mouse model of ulcerative colitis as one of inflammatory bowel diseases. C57BL/6 mice were selected as test animals, and in order to induce ulcerative colitis, a cycle in which an inflammation inducing substance, DSS was added in drinking water and supplied for 7 days, and then normal drinking water was supplied for 14 days was repeated. Such an inflammation inducing cycle was repeated 3 times to induce chronic inflammation, ulcer and fibrous conditions in the large intestine. […]
In order to observe an immunohistochemical change of a large intestine tissue, a tissue fixed to a 10% neutral buffer formalin solution was sliced, attached to a coating slide, and deparaffinized, and then stained, and IHC of reacting with antibodies IL-6 (Interleukin-6), α-SMA (α-smooth muscle actin), and TGF-β (transforming growth factor beta) on each slide was requested to an external institute (Notus) and the test was performed. In an individual-specific tissue slide, three constant zones were specified and imaged 100 times, a stained portion to the total area was measured, and a mean value was calculated (Zen 2.3 blue edition, Carl Zeiss, Germany). […]

[3] = aqueous solubility of the compound of Chemical Formula 1; format: physicochemical
[4] = system: ulcerative colitis mouse model induced with DSS; assay: histopathological severity scores in ulcerative colitis mouse model induced with DSS; format: in vivo, C57BL/6 mice
Experimental: Animal tests were performed to confirm anti-inflammatory, anti-crypt cell damage, anti-ulcer, anti-edema, and anti-fibrosis effects of a vactosertib/bentonite complex using a mouse model of ulcerative colitis as one of inflammatory bowel diseases. C57BL/6 mice were selected as test animals, and in order to induce ulcerative colitis, a cycle in which an inflammation inducing substance, DSS was added in drinking water and supplied for 7 days, and then normal drinking water was supplied for 14 days was repeated. Such an inflammation inducing cycle was repeated 3 times to induce chronic inflammation, ulcer and fibrous conditions in the large intestine. To test animal groups except for control groups, from 3 weeks after a first inflammation inducing cycle was elapsed, bentonite, vactosertib, or a vactosertib/bentonite complex was administered twice a day (10 am, 4 pm), 5 days a week, and for total 6 weeks. The bentonite per 1 kg of converted mouse weight was administered with 106.8 mg, the vactosertib was administered with 20.0 mg, and the complex was administered with 126.8 mg. At this time, as the vactosertib/bentonite complex, the complex prepared in Test Example 5 was used. For each test group used in ulcerative colitis animal tests, inflammation inducing substances, test substances, doses of the test substances, and the number of test animals were shown in Table 7 below.
C57BL/6 mice used in the test were supplied from the Orient Bio Gapyeong Center (699-13, Mokdong-ri, Buk-yeon, Gapyeong-gun, Gyeonggi-do), and about 6-week-old during obtaining. For about 7 days after obtaining, the rats were quarantined and purified and then healthy animals were used for the test. When the induced material was administered, the test animals were about 8-week-old, and 52 mice were used. The test animals were bred in the 2nd floor of Clean Animal Room, Bioscience Research Institute, Research Institute of Medical Science at Inha University, and circulated in at least 10 times/hour and bred under conditions of a temperature of 22±4° C., relative humidity of 50±20%, and illuminance of 150 to 300 Lux of lighting on for 12 hours (lighting: 08:00 to 20:00). A radiation solid feed (FeedLab GMO Free Rodent Diet GF2005) for rodents was free-taken using a feeder and water sterilized by an ultraviolet-ray flowing water sterilizer and high-pressure vapor after reverse osmosis was free-taken using a polysulfonate-made drinking water bottle (300 ml).
In order to induce ulcerative colitis, 2% DSS was added in drinking water of mice and continuously supplied for first 7 days of every test cycle (3 weeks). The test substances were orally administered 2 times a day, 5 days a week, and for a total of 6 weeks at the same time of second DSS induction (FIG. 14). The test substance dose was administered in a liquid amount of 20 mL per kg by body weight converted for each individual based on the body weight. The administration was orally performed by putting a test substance in a syringe and injecting the test substance by connecting a feeding needle for rats.
In order to evaluate a treatment effect of test substances on ulcerative colitis, after the end of the test, the animal was anesthetized, opened, and bled and then a histopathological test was performed for each individual. Histopathological findings were subdivided and scored into severity changes of inflammation, crypt cell damage, ulcer, edema, and fibrosis as shown in Table 8 below. In addition, the four histopathological severity scores excluding fibrosis were summed to compare a positive control (G2) and test substance-administered groups (G3, G4, and […]).
Statistical analysis was performed using Graphpad Prism version 8.01, and a minimum unit of significance was set to p<0.05. Since all measured histopathological indexes were nonparametric data, the indexes were represented by a median, 25% to 75% values (in the box), and minimum-maximum values (both ends) in the graph (FIGS. 15 to 20). […]

[5] = partition coefficient (octanol/water); format: physicochemical
[6] = DSS 2% mice, oral twice a day, 5 days a week, 6 weeks, bentonite 106.8, vactosertib 20.0, complex 126.8 mg/kg, 3 point scale

Cc1cccc(-c2[nH]c(CNc3ccccc3F)nc2-c2ccc3ncnn3c2)n1 [Vactosertib, N-((4-([1,2,4]triazolo[1,5-a]pyridine-6-yl)-5-(6-methylpyridin-2-yl)-1H-imidazol-2-yl)methyl)-2-fluoroaniline]
Adsorption rate ([1]; vactosertib 0.01 mg/mL, bentonite 0.5 mg/mL, pH 1): 99.4 ± 0.1%
Adsorption rate ([1]; vactosertib 0.025 mg/mL, bentonite 0.5 mg/mL, pH 1): 99.8 ± 0.0%
Adsorption rate ([1]; vactosertib 0.05 mg/mL, bentonite 0.5 mg/mL, pH 1): 99.8 ± 0.1%
Adsorption rate ([1]; vactosertib 0.1 mg/mL, bentonite 0.5 mg/mL, pH 1): 80.7 ± 1.0%
Adsorption rate ([1]; vactosertib 0.1 mg/mL, bentonite 0.5 mg/mL, pH 2): 79.3 ± 1.0%
Adsorption rate ([1]; vactosertib 0.1 mg/mL, bentonite 0.5 mg/mL, pH 3): 79.0 ± 0.8%
Adsorption rate ([1]; vactosertib 0.15 mg/mL, bentonite 0.5 mg/mL, pH 1): 57.1 ± 1.5%
Adsorption rate ([1]; vactosertib 0.2 mg/mL, bentonite 0.5 mg/mL, pH 1): 43.8 ± 0.5%
Adsorption rate ([1]; vactosertib 0.3 mg/mL, bentonite 0.5 mg/mL, pH 1): 31.2 ± 1.2%
Adsorption rate ([1]; vactosertib 0.4 mg/mL, bentonite 0.5 mg/mL, pH 1): 23.0 ± 0.8%
Adsorption rate ([1]; vactosertib 0.5 mg/mL, bentonite 0.5 mg/mL, pH 1): 19.0 ± 0.9%
Adsorption rate ([1]; vactosertib 1 mg/mL, bentonite 5 mg/mL, pH 1): 90.4 ± 0.2%
reduction of IL-6 staining area compared with G2 group [2]: 23.0%
IL-6 (Area %) ([2]; mean and standard error): 9.7 ± 2.9 Area %
solubility ([3]; 25 °C, water, thermodynamic from solid, saturated aqueous solution at 25±3° C., pH 7.2): < 20 µg/mL
pH of a saturated aqueous solution ([3]; 25±3° C.): 7.2
solubility ([3]; aqueous solution, aqueous buffer, at pH 2.81): 25000 µg/mL (≈ 62700 µM)
solubility ([3]; aqueous solution, aqueous buffer, at pH 3): ~1000 µg/mL (≈ 2500 µM)
solubility ([3]; aqueous solution, aqueous buffer, in pH 4.9 or higher): ≤ 20 µg/mL
Edema score (mean) ([4]; DSS 2% mice, oral twice a day, 5 days a week, 6 weeks, bentonite 106.8, vactosertib 20.0, complex 126.8 mg/kg, 1 point scale): 0.3
Fibrosis score (mean) [4, 6]: 1.5
Ulcer score (mean) [4, 6]: 0.9
Crypt cell damage score (mean) ([4]; DSS 2% mice, oral twice a day, 5 days a week, 6 weeks, bentonite 106.8, vactosertib 20.0, complex 126.8 mg/kg, 4 point scale): 2
Inflammation score (mean) ([4]; DSS 2% mice, oral twice a day, 5 days a week, 6 weeks, bentonite 106.8, vactosertib 20.0, complex 126.8 mg/kg, 5 point scale): 3.6
median of inflammation index compared with the positive control group (G2) ([4]; FIG. 15, Dunn's test): slightly low in a median of an inflammation index
median of crypt cell damage index compared with the positive control group (G2) ([4]; FIG. 16, Dunn's test): low in a median of a crypt cell damage index, but had no statistical significance
median of ulcer index compared with the positive control group (G2) ([4]; FIG. 17, Dunn's test): low in a median of an ulcer index, but had no statistical significance
median of fibrosis index compared with the positive control group (G2) ([4]; FIG. 19, Dunn's test): slightly low in a median of a fibrosis index
median of summed severity scores (inflammation, crypt cell damage, ulcer, edema) compared with the positive control group (G2) ([4]; FIG. 20, Dunn's test): low in a median of an ulcer index, but had no statistical significance
Histopathologic total score (mean) ([4]; sum of inflammation, crypt cell damage, ulcer, edema (fibrosis excluded), same dosing): 6.8
partition coefficient (octanol/water) Log Do/w [5]: 3.31
